Results: article PMC12706802, “Ortho-Hydroxyanilides: Slow-Acting, Selective Histone Deacetylase 1/2 Inhibitors Suitable for Photocaging Applications” (ACS Pharmacology & Translational Science, 2025)

Experiments:
[1] = molecular target: HDAC2 (Homo sapiens, UniProt Q92769); assay: Fluorescence-based biochemical HDAC enzyme inhibition assay (ZMAL substrate); conditions: HDAC2 IC50, preincubation of enzyme and inhibitor 1 h at RT; no irradiation
Protocol: (§1) First, the inhibitory activity and isoform selectivity of compounds and controls (see Figure ) was evaluated in a fluorescence-based biochemical HDAC inhibition assay against recombinant HDAC1, HDAC2, HDAC3, and HDAC6. […] First, 3-fold serial dilutions of test compounds were prepared in DMSO. […] IC50 values were determined by generating normalized dose–response curves using the three-parameter logistic equation (GraphPad Prism 8.0, San Diego, USA).

[2] = molecular target: T1, human recombinant HDAC6 (Homo sapiens, UniProt Q9UBN7); assay: as above
T1 sequence (Q9UBN7 1-1215): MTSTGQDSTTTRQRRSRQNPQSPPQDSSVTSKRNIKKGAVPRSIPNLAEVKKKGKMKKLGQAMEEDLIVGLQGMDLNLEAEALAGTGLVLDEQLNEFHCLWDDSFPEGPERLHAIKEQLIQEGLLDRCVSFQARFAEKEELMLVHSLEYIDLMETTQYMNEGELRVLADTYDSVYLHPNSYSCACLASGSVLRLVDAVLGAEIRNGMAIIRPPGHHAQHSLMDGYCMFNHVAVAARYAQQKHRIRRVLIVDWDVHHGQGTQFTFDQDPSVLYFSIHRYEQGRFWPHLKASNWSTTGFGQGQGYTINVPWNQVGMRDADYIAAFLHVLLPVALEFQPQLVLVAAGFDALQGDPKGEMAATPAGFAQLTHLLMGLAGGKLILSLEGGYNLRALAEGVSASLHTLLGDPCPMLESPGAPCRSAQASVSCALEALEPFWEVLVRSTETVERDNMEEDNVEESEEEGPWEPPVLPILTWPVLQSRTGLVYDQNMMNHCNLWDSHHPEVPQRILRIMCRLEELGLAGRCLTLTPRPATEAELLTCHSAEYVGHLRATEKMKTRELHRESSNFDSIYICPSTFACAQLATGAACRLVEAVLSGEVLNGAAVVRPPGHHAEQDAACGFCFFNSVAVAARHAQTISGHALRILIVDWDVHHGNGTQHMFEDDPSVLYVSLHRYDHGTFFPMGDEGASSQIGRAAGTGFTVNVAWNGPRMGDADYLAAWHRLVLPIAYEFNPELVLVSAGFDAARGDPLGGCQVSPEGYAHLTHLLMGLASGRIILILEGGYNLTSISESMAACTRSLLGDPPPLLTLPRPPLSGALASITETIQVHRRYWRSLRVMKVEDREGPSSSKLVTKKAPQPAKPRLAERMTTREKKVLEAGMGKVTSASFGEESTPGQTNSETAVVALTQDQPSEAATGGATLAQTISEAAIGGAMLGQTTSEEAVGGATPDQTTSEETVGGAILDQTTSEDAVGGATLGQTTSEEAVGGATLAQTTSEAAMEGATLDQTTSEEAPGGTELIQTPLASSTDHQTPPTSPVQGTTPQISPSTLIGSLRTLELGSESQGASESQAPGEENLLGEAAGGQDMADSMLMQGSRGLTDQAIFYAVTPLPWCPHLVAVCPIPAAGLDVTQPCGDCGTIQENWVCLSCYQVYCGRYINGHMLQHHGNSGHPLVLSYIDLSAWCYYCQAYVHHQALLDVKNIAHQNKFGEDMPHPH
Protocol: as §1

[3] = tested on: HDAC4–8; set-up: method as in number not given; conditions: literature value for Cpd-60; ref number not given; cited from earlier work

Chain of HDAC2 (Q92769 whole entry): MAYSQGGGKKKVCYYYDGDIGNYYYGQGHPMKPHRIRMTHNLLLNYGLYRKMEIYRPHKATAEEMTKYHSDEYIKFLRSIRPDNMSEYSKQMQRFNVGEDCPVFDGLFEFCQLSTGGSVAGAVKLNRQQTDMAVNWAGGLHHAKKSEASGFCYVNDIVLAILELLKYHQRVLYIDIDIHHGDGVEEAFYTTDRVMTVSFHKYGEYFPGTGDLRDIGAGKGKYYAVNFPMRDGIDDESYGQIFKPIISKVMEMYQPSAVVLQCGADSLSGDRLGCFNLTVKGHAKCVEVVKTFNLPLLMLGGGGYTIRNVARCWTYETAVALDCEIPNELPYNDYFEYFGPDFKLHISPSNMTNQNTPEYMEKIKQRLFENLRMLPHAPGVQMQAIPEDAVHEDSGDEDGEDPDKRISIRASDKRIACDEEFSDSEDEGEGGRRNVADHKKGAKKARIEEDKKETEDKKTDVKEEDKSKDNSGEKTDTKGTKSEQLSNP

| IC50 [1] | IC50 [2] | Compound | IC50 [3] |
| --- | --- | --- | --- |
| 49 ± 3 nM | > 10 µM | CC(=O)Nc1ccc(C(=O)Nc2cc(-c3ccccc3)ccc2O)cc1 [ST13, 4-Acetamido-N-(4-hydroxy-[1,1′-biphenyl]-3-yl)-benzamide] |  |
|  |  | CC(=O)Nc1ccc(C(=O)Nc2cc(-c3cccs3)ccc2N)cc1 [Cpd-60, reference compound] | > 10 µM |
